Patent US20170368082A1, “FORMULATIONS OF BRINCIDOFOVIR” (priority 2016, published 2017)
Where two headings read alike, the source gives them in different places.

Test: Phase 2 toxicokinetics of brincidofovir and cidofovir in plasma
Assay type: in vivo, Sprague-Dawley CD rats
Conditions: for Tmax: Sprague-Dawley CD, rat, plasma, iv, read-out: Median Tmax; for AUClast/Dose / Cmax/Dose / Tlast: brincidofovir in plasma, 1 mg/kg 2-hour IV infusion, Female rats
Description: Plasma samples (108) were collected 2 hours following the initiation of dosing on Day 1 and Day 7 (Group 1), or at 1, 2, 8, and 24 hours following the initiation of dosing on Day 1, and prior to administration and at 2, 8, and 24 hours following the initiation of dosing on Day 7 (Groups 2 and 3), and analyzed to determine the concentrations of brincidofovir and the metabolite, cidofovir), by LC/MS/MS.
Approximately 0.4 mL of whole blood was obtained via the tail vein from each animal at each time point. Animals were not fasted prior to blood collection. Blood was collected into tubes containing K2EDTA anticoagulant and placed on wet ice in an upright position, per facility SOP prior to processing. Plasma was separated by centrifugation (10 minutes at approximately 2000 g, at approximately 2-8° C.). Approximately 0.10 mL of plasma was transferred into a single cryotube appropriately labeled with study number, animal number, time point, date of sampling and sample type. Remaining plasma was transferred into a second cryotube and retained as a backup sample. Plasma frozen at approximately −80±10° C. within approximately 2 hours after collection of each blood sample until analysis. Animals were euthanized (CO2 inhalation) after the final blood collection.
In general, TK parameters were estimated using mean plasma concentrations of brincidofovir and cidofovir derived from the composite blood sampling design using Phoenix WinNonLin (V 6.3).
A composite blood sampling design was used such that each rat was sampled twice per sampling day. Blood was collected via tail vein from unanesthetized animals into tubes containing anticoagulant and placed on wet ice in an upright position. Animals were not fasted prior to blood collection. Plasma was separated by centrifugation (for 10 minutes at approximately 2000 g, at approximately 2-8° C.), and transferred into individually labeled cryotubes. All cryotubes containing the collected plasma samples were appropriately labeled as to study number, animal number, time point, date of sampling and sample type. All plasma samples were obtained and frozen at approximately −80° C. (±10° C.) within approximately 2 hours after collection of each blood sample until analysis.
Rat plasma bioanalysis was conducted by Pyxant Laboratories. Plasma samples were analyzed for concentrations of brincidofovir and cidofovir using a method based upon protein precipitation extraction followed by LC-MS/MS analysis; calibration ranges for brincidofovir and cidofovir were 1.00-1500 ng/mL and 5.00-750 ng/mL, respectively, (Pyxant study number 3025) for a 50 μL aliquot of rat plasma. Sample analysis for ISR was not performed as part of this non-GLP study.
For the generation of Mean Profiles, all sample concentrations that were below the limit of quantitation (BLQ) were set to 0.
All pharmacokinetic parameter estimates were completed using a Non-Compartmental Model (Model 200-202 for IV infusion administration). The AUClast and AUCinf were calculated using the linear up log down trapezoidal rule.

[1] = brincidofovir 1 mg/kg, Male, Day 1, 1 h
[2] = brincidofovir 1 mg/kg, Male, Day 1, 2 h
[3] = brincidofovir 1 mg/kg, Male, Day 7, 0 h
[4] = brincidofovir 1 mg/kg, Male, Day 7, 2 h
[5] = brincidofovir 15 mg/kg, Female, Day 1, 1 h
[6] = brincidofovir 15 mg/kg, Female, Day 1, 2 h
[7] = brincidofovir 15 mg/kg, Female, Day 1, 8 h
[8] = brincidofovir 15 mg/kg, Female, Day 1, 24 h
[9] = brincidofovir 15 mg/kg, Female, Day 7, 0 h
[10] = brincidofovir 15 mg/kg, Female, Day 7, 2 h
[11] = brincidofovir 15 mg/kg, Female, Day 7, 8 h
[12] = brincidofovir 15 mg/kg, Female, Day 7, 24 h
[13] = brincidofovir 15 mg/kg, Male, Day 1, 1 h
[14] = brincidofovir 15 mg/kg, Male, Day 1, 2 h
[15] = brincidofovir 15 mg/kg, Male, Day 1, 8 h
[16] = brincidofovir 15 mg/kg, Male, Day 7, 0 h
[17] = brincidofovir 15 mg/kg, Male, Day 7, 2 h

## CCCCCCCCCCCCCCCCOCCCOP(=O)(O)CO[C@H](CO)Cn1ccc(N)nc1=O [Brincidofovir]
1 or 15 mg/kg, Days 1 and 7
  Difference in Cmax between female and male: ≤ 54%
1 mg/kg, single and twice weekly 1 mg/kg
  Tmax: 2 h
15 mg/kg, single 15 mg/kg
  Tmax: 1 h
15 mg/kg, twice weekly 15 mg/kg
  Tmax: 2 h
Brincidofovir 1 mg/kg, Female, Day 7, 24 h
  brincidofovir Mean Concentration (MC): 0.00 ng/mL
[1]
  brincidofovir Imputed Mean Concentration (IMC): 227 ng/mL
  brincidofovir Mean Concentration (MC): 227 ng/mL
[2]
  brincidofovir Imputed Mean Concentration (IMC): 235 ng/mL
  brincidofovir Mean Concentration (MC): 235 ng/mL
Brincidofovir 1 mg/kg, Male, Day 1, 8 h
  brincidofovir Mean Concentration (MC): 0.00 ng/mL
Brincidofovir 1 mg/kg, Male, Day 1, 24 h
  brincidofovir Mean Concentration (MC): 0.00 ng/mL
[3]
  brincidofovir Imputed Mean Concentration (IMC): 0.00 ng/mL
  brincidofovir Mean Concentration (MC): 0.00 ng/mL
[4]
  brincidofovir Imputed Mean Concentration (IMC): 208 ng/mL
  brincidofovir Mean Concentration (MC): 208 ng/mL
Brincidofovir 1 mg/kg, Male, Day 7, 8 h
  brincidofovir Mean Concentration (MC): 0.00 ng/mL
Brincidofovir 1 mg/kg, Male, Day 7, 24 h
  brincidofovir Mean Concentration (MC): 0.00 ng/mL
[5]
  brincidofovir Imputed Mean Concentration (IMC): 3470 ng/mL
  brincidofovir Mean Concentration (MC): 3470 ng/mL
[6]
  brincidofovir Imputed Mean Concentration (IMC): 2570 ng/mL
  brincidofovir Mean Concentration (MC): 2570 ng/mL
[7]
  brincidofovir Imputed Mean Concentration (IMC): 6.53 ng/mL
  brincidofovir Mean Concentration (MC): 6.53 ng/mL
[8]
  brincidofovir Imputed Mean Concentration (IMC): 2.02 ng/mL
  brincidofovir Mean Concentration (MC): 2.02 ng/mL
[9]
  brincidofovir Imputed Mean Concentration (IMC): 0.00 ng/mL
  brincidofovir Mean Concentration (MC): 0.00 ng/mL
[10]
  brincidofovir Imputed Mean Concentration (IMC): 1660 ng/mL
  brincidofovir Mean Concentration (MC): 1660 ng/mL
[11]
  brincidofovir Imputed Mean Concentration (IMC): 5.45 ng/mL
  brincidofovir Mean Concentration (MC): 5.45 ng/mL
[12]
  brincidofovir Imputed Mean Concentration (IMC): 0.790 ng/mL
  brincidofovir Mean Concentration (MC): 0.790 ng/mL
[13]
  brincidofovir Imputed Mean Concentration (IMC): 4370 ng/mL
  brincidofovir Mean Concentration (MC): 4370 ng/mL
[14]
  brincidofovir Imputed Mean Concentration (IMC): 2840 ng/mL
  brincidofovir Mean Concentration (MC): 2840 ng/mL
[15]
  brincidofovir Imputed Mean Concentration (IMC): 9.59 ng/mL
  brincidofovir Mean Concentration (MC): 9.59 ng/mL
[16]
  brincidofovir Imputed Mean Concentration (IMC): 0.00 ng/mL
  brincidofovir Mean Concentration (MC): 0.00 ng/mL
[17]
  brincidofovir Imputed Mean Concentration (IMC): 1910 ng/mL
  brincidofovir Mean Concentration (MC): 1910 ng/mL
Brincidofovir 15 mg/kg, Male, Day 7, 8 h
  brincidofovir Mean Concentration (MC): 8.72 ng/mL
Day 1
  AUClast/Dose: 459 (h*ng/mL)/(mg/kg)
  Cmax/Dose: 191 (ng/mL)/(mg/kg)
  Tlast: 8 h
Day 7
  AUClast/Dose: 244 (h*ng/mL)/(mg/kg)
  Cmax/Dose: 95.4 (ng/mL)/(mg/kg)
  Tlast: 8 h
